Test results as given in patent publication US20250270206A1, “COMPOSITIONS AND METHODS FOR INHIBITION OF RAS” (TheRas, Inc., priority 2022, published 2025).
pIC50: −log10 of the molar value.

Experiments:
[1] = molecular target: T1, GppNHp-loaded KRAS4b (amino acids 1-169) G12C/C118S (Homo sapiens, UniProt P01116, C118S/G12C); assay: MALDI-TOF MS covalent Cys12 modification, GppNHp-loaded KRAS G12C; type: binding; details: 15 minutes reaction time, 1 μM protein, 1:2.5 protein to compound ratio
T1 construct: KRAS4b (amino acids 1-169) G12C/C118S protein; made in house
Method in brief: (§1)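 1 μM KRAS4b(1-169) G12C/C118S loaded with GTP, GppNHp or GDP in 20 mM HEPES, 150 mM NaCl, 1 mM MgCl2, pH 7.3, treated at a 1:2.5 protein:compound ratio in the dark at room temperature. Linear-mode MALDI-TOF; percent modification = adduct peak height over total protein peak heights, at 15 min.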

pERK in NCI-H358 cells = assay: Cell-based pERK HTRF assay; details: Homo sapiens, 0.5 h, 30 min incubation
Method in brief: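 KRAS G12C NCI-H358 cells in RPMI/10% FBS treated 30 min with compound, 9-point 3-fold series from 75 μM final top, 0.25% DMSO. Lysates read for phospho-ERK by HTRF (d2/Eu cryptate antibodies, 615 nm emission) after 4–24 h room-temperature incubation.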

[2] = molecular target: T2, GTP-loaded KRAS4b (amino acids 1-169) G12C/C118S (Homo sapiens, UniProt P01116, C118S/G12C); assay: MALDI-TOF MS covalent Cys12 modification, GTP-loaded KRAS G12C; type: binding; details: 15 minutes reaction time, 1 μM protein, 1:2.5 protein to compound ratio
T2 construct: KRAS4b (amino acids 1-169) G12C/C118S protein; made in house
Method in brief: as §1

[3] = molecular target: T3, GDP-loaded KRAS4b (amino acids 1-169) G12C/C118S (Homo sapiens, UniProt P01116, C118S/G12C); assay: MALDI-TOF MS covalent Cys12 modification, GDP-loaded KRAS G12C; type: binding; details: 15 minutes reaction time, 1 μM protein, 1:2.5 protein to compound ratio
T3 construct: KRAS4b (amino acids 1-169) G12C/C118S protein; made in house
Method in brief: as §1

[4] = molecular target: T4, Avi-KRAS G12C (1-169) GppNHp/RAF1 RBD-3×FLAG (52-151) (Homo sapiens, UniProt P01116, G12C); assay: KRAS G12C-effector (RAF1 RBD) protein:protein interaction HTRF disruption assay; type: biochemical; details: PPI HTRF
T4 construct: Avi-KRAS G12C (1-169) GppNHp
Method in brief: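 TR-FRET disruption read-out (excitation 320 nm, emission 615 nm), expressed relative to DMSO set at 100% activity, over a 3-fold compound series of 30-0.02 μM. Tris pH 7.5 buffer with 5 mM MgCl2, 0.1% BSA and 10% DMSO. GppNHp-bound KRAS G12C (50 nM), then RAF1 RBD (75 nM), then detection reagents, each incubated 1 h at RT.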

SMILES | GppNHp-KRAS G12C percent of modification [1] | pIC50 (pERK in NCI-H358 cells) | GTP-KRAS G12C percent of modification [2] | GDP-KRAS G12C percent of modification [3] | pIC50 [4]
C=CC(=O)N1CCC(N(CC)c2nc(OC[C@@]34CCCN3C[C@H](F)C4)nc3c(F)c(-c4ccc(F)c5sc(N)c(C#N)c45)ncc23)[C@H]1C (stereo partly drawn) [Compound 19] | A (percent of modification ≥70%) | ≥ 7.00 | A (percent of modification ≥70%) | A (percent of modification ≥70%) | ≥ 6.30
C=CC(=O)N1CC[C@@H](N(C)c2nc(OC[C@@]34CCCN3C[C@H](F)C4)nc3c(Cl)c(-c4ccc(F)c5sc(N)c(C#N)c45)ncc23)[C@@H]1CC [Compound 45] | C (10%≤percent of modification <50%) | 6.00 to 7.00 | D (percent of modification <10%) | A (percent of modification ≥70%) | 5.30 to 6.30
C=CC(=O)N1CC[C@@H](N(CC)c2nc(OC[C@@]34CCCN3C[C@H](F)C4)nc3c(F)c(-c4ccc(F)c5sc(N)c(C#N)c45)ncc23)[C@H]1CC [Compound 46] | A (percent of modification ≥70%) | 6.00 to 7.00 | A (percent of modification ≥70%) | A (percent of modification ≥70%) | ≥ 6.30
C=CC(=O)N1C[C@H](F)[C@@H](N(C)c2nc(OC[C@@]34CCCN3C[C@H](F)C4)nc3c(F)c(-c4ccc(F)c5sc(N)c(C#N)c45)ncc23)C1 [Compound 12] | A (percent of modification ≥70%) | ≥ 7.00 | A (percent of modification ≥70%) | A (percent of modification ≥70%) | ≥ 6.30
C=CC(=O)N1CCC(N(C)c2nc(OC[C@@]34CCCN3C[C@H](F)C4)nc3c(Cl)c(-c4ccc(F)c5sc(N)c(C#N)c45)ncc23)[C@H]1CC (stereo partly drawn) [Compound 38] | A (percent of modification ≥70%) | ≥ 7.00 | A (percent of modification ≥70%) | A (percent of modification ≥70%) | ≥ 6.30
C=CC(=O)N1CC[C@@H](N(C)c2nc(OC[C@@]34CCCN3C[C@H](F)C4)nc3c(F)c(-c4ccc(F)c5sc(N)c(C#N)c45)ncc23)[C@@H]1C [Compound 52] | A (percent of modification ≥70%) | ≥ 7.00 | B (50% percent of modification <70%) | A (percent of modification ≥70%) | ≥ 6.30
C=CC(=O)N1CCC(N(CC)c2nc(OC[C@@]34CCCN3C[C@H](F)C4)nc3c(F)c(-c4ccc(F)c5sc(N)c(C#N)c45)ncc23)[C@H]1CC (stereo partly drawn) [Compound 40] | A (percent of modification ≥70%) | 6.00 to 7.00 | A (percent of modification ≥70%) | A (percent of modification ≥70%) | ≥ 6.30
C=CC(=O)N1CC[C@@H](N(C)c2nc(OC[C@@]34CCCN3C[C@H](F)C4)nc3nc(-c4ccc(F)c5sc(N)c(C#N)c45)ccc23)C1 [Compound 9, 4-(4-(((R)-1-acryloylpyrrolidin-3-yl)(methyl)amino)-2-(((2R,7aS)-2-fluorotetrahydro-1H-pyrrolizin-7a(5H)-yl)methoxy)pyrido[2,3-d]pyrimidin-7-yl)-2-amino-7-fluorobenzo[b]thiophene-3-carbonitrile] | C (10%≤percent of modification <50%) | < 6.00 | C (10%≤percent of modification <50%) | A (percent of modification ≥70%) | ≥ 6.30
C=CC(=O)N1CCC(N(CC)c2nc(OC[C@@]34CCCN3C[C@H](F)C4)nc3c(Cl)c(-c4ccc(F)c5sc(N)c(C#N)c45)ncc23)[C@H]1C (stereo partly drawn) [Compound 37] | A (percent of modification ≥70%) | ≥ 7.00 | A (percent of modification ≥70%) | A (percent of modification ≥70%) | ≥ 6.30
C=CC(=O)N1CC[C@@H](N(C)c2nc(OC[C@@]34CCCN3C[C@H](F)C4)nc3c(Cl)c(-c4ccc(F)c5sc(N)c(C#N)c45)ncc23)[C@H]1CC [Compound 47] | A (percent of modification ≥70%) | ≥ 7.00 | A (percent of modification ≥70%) | A (percent of modification ≥70%) | ≥ 6.30
C=CC(=O)N1C[C@@H](F)[C@@H](N(CC)c2nc(OC[C@@]34CCCN3C[C@H](F)C4)nc3c(F)c(-c4ccc(F)c5sc(N)c(C#N)c45)ncc23)C1 [Compound 18] | A (percent of modification ≥70%) | ≥ 7.00 | A (percent of modification ≥70%) | A (percent of modification ≥70%) | ≥ 6.30
C=CC(=O)N1CC[C@@H](N(C)c2nc(OC[C@@]34CCCN3C[C@H](F)C4)nc3c(F)c(-c4ccc(F)c5sc(N)c(C#N)c45)ncc23)[C@H]1C [Compound 17, 4-(4-(((2R,3R)-1-acryloyl-2-methylpyrrolidin-3-yl)(methyl)amino)-8-fluoro-2-(((2R,7aS)-2-fluorotetrahydro-1H-pyrrolizin-7a(5H)-yl)methoxy)pyrido[4,3-d]pyrimidin-7-yl)-2-amino-7-fluorobenzo[b]thiophene-3-carbonitrile] | A (percent of modification ≥70%) | ≥ 7.00 | A (percent of modification ≥70%) | A (percent of modification ≥70%) | ≥ 6.30
C=CC(=O)N1CCC(N(CC)c2nc(OC[C@@]34CCCN3C[C@H](F)C4)nc3c(Cl)c(-c4ccc(F)c5sc(N)c(C#N)c45)ncc23)[C@H]1CC (stereo partly drawn) [Compound 41] | A (percent of modification ≥70%) | 6.00 to 7.00 | A (percent of modification ≥70%) | A (percent of modification ≥70%) | ≥ 6.30
C=CC(=O)N1CCC(N(C)c2nc(OC[C@@H]3C[C@@H](F)CN3C)nc3c(F)c(-c4ccc(F)c5sc(N)c(C#N)c45)ncc23)[C@H]1C (stereo partly drawn) [Compound 23] | A (percent of modification ≥70%) | 6.00 to 7.00 | A (percent of modification ≥70%) | A (percent of modification ≥70%) | ≥ 6.30
C=CC(=O)N1CCC(N(C)c2nc(OC[C@@H]3C[C@@H](OC)CN3C)nc3c(F)c(-c4ccc(F)c5sc(N)c(C#N)c45)ncc23)[C@H]1C (stereo partly drawn) [Compound 28] | A (percent of modification ≥70%) | 6.00 to 7.00 | A (percent of modification ≥70%) | A (percent of modification ≥70%) | ≥ 6.30
C=CC(=O)N1CC[C@@H](N(C)c2nc(OC[C@@]34CCCN3C[C@H](F)C4)nc3cc(-c4ccc(F)c5sc(N)c(C#N)c45)c(C(F)(F)F)nc23)[C@H]1C [Compound 15] | A (percent of modification ≥70%) | ≥ 7.00 | A (percent of modification ≥70%) | A (percent of modification ≥70%) | ≥ 6.30
C=CC(=O)N1CC[C@@H](N(C)c2nc(OC[C@@]34CCCN3C[C@H](F)C4)nc3c(F)c(-c4ccc(F)c5sc(N)c(C#N)c45)ncc23)[C@@H]1CC [Compound 44] | C (10%≤percent of modification <50%) | 6.00 to 7.00 | D (percent of modification <10%) | A (percent of modification ≥70%) | 5.30 to 6.30
C=CC(=O)N1C[C@H](C)N(c2nc(OC[C@@]34CCCN3C[C@H](F)C4)nc3c(F)c(-c4ccc(F)c5sc(N)c(C#N)c45)ncc23)C[C@H]1C [Compound 7, 2-amino-4-[4-[(2S,5R)-2,5-dimethyl-4-prop-2-enoyl-piperazin-1-yl]-8-fluoro-2-[[(2R,8S)-2-fluoro-1,2,3,5,6,7-hexahydropyrrolizin-8-yl]methoxy]pyrido[4,3-d]pyrimidin-7-yl]-7-fluoro-benzothiophene-3-carbonitrile] | B (50% percent of modification <70%) | ≥ 7.00 | D (percent of modification <10%) | A (percent of modification ≥70%) | ≥ 6.30
